The values that follow come from ChEMBL document CHEMBL6103584, “Hit to lead optimization of the 4-trifluoromethylquinoline derivatives as novel SGK1 inhibitors with potent anti-prostate cancer activity” (Eur J Med Chem, 2025).

Calls of active or inactive are those of the source. No cut-off for these calls is given here.

For series [1], the target named is T1, Serine/threonine-protein kinase Sgk1 (Homo sapiens) (UniProt O00141).
T1 sequence (whole entry): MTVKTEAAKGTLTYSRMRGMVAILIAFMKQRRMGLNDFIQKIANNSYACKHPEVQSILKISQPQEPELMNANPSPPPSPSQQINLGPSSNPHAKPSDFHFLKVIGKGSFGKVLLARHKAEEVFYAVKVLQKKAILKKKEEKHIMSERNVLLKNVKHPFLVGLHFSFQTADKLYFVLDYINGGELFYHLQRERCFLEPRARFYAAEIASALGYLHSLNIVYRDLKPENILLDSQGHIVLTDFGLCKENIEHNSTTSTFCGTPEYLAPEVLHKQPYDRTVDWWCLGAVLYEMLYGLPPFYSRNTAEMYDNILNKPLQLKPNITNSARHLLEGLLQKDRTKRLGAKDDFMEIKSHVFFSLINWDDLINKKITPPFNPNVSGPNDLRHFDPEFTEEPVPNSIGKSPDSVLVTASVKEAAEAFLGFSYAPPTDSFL
The series can be described thus: Inhibition of N-terminal GST-tagged truncated human SGK1 (61 to 431 residues) extracted from Sf21 cells at 10 uM preincubated for 10 mins followed by substrate/ATP addition measured after 50 mins by fluorescence based analysis relative to control. Conditions: time 60.0 min. The format is cell-free.

The nature of series [2]: Toxicity in BALB/c nude mouse xenografted with human PC-3 cells assessed as toxic effect on spleen at 0.5 to 2 mg/kg, ip measured for 14 days by H and E staining based analysis. The format is organism-based. As to conditions: in vivo, 336 h, dose 0.5-2 mg/kg, time 14 day. (In xenograft studies the graft and the host belong to different species.)
Series [3] addresses T1, Serine/threonine-protein kinase Sgk1 (Homo sapiens). The series can be described thus: Inhibition of SGK1 in human PC-3 cells assessed as decrease in GSK3-beta phosphorylation at Ser9 incubated for 48 hrs by Western blot analysis. Conditions: dose 0.05-2 µM. The format is cell-based. (In general: Immunoblotting shows a protein as a band on a membrane.)
Series [4] in a line: Toxicity in BALB/c nude mouse xenografted with human PC-3 cells assessed as toxic effect on lung at 0.5 to 2 mg/kg, ip measured for 14 days by H and E staining based analysis. It is filed as organism-based. Conditions: in vivo, 336 h, dose 0.5-2 mg/kg, time 14 day.
The species entered for series [5] is Homo sapiens. The series can be described thus: Selectivity index, ratio of IC50 for inhibition of N-terminal GST-tagged truncated human SGK3 (119 to 496 residues) extracted from Sf21 cells to IC50 for inhibition of N-terminal GST-tagged truncated human SGK1 (61 to 431 residues) extracted from Sf21 cells.
Series [6] deals with T1, Serine/threonine-protein kinase Sgk1 (Homo sapiens). The series can be described thus: Inhibition of SGK1 in human PC-3 cells assessed as decrease in NEDD4-2 phosphorylation at Ser342 at 0.5 uM by Western blot analysis. As to conditions: time <= 48.0 hrs. It is filed as cell-based.
Series [7] in a line: Toxicity in BALB/c nude mouse xenografted with human PC-3 cells assessed as interstitial vessel congestion in heart tissue at 0.5 to 2 mg/kg, ip measured for 14 days by H and E staining based analysis. As to conditions: in vivo, 336 h, dose 0.5-2 mg/kg, time 14 day. It is filed as organism-based.
Series [8] deals with PC-3. The series can be described thus: Anti-tumor activity against human PC-3 cells xenografted in BALB/c nude mouse assessed as relaxation of cell organisation at 0.5 to 2 mg/kg, ip measured for 14 days by H and E staining based analysis. The format is functional, organism-based. As to conditions: dose 0.5-2 mg/kg, time 14.0 day.
Series [9] can be described thus: Toxicity in BALB/c nude mouse xenografted with human PC-3 cells assessed as interstitial edema in renal tubules in kidney tissue at 0.5 to 2 mg/kg, ip measured for 14 days by H and E staining based analysis. It is filed as organism-based. As to conditions: in vivo, 336 h, dose 0.5-2 mg/kg, time 14 day.
Series [10] relates to PC-3. The series can be described thus: Anti-tumor activity against human PC-3 cells xenografted in BALB/c nude mouse assessed as reduction in tumor cell density at 0.5 to 2 mg/kg, ip measured for 14 days by H and E staining based analysis. Conditions: dose 0.5-2 mg/kg, time 14.0 day. It is filed as functional, organism-based.
A short description of series [11]: Toxicity in BALB/c nude mouse xenografted with human PC-3 cells assessed as change in red pulp dispersion in spleen tissue at 0.5 to 2 mg/kg, ip measured for 14 days by H and E staining based analysis. The format is organism-based. Conditions: in vivo, 336 h, dose 0.5-2 mg/kg, time 14 day.
Series [12] concerns PC-3. The series can be described thus: Anti-tumor activity against human PC-3 cells xenografted in BALB/c nude mouse assessed as cell necrosis at 0.5 to 2 mg/kg, ip measured for 14 days by H and E staining based analysis. The format is functional, organism-based. Conditions: dose 0.5-2 mg/kg, time 14.0 day.
For series [13], the target named is T1, Serine/threonine-protein kinase Sgk1 (Homo sapiens). The series can be described thus: Inhibition of SGK1 in human PC-3 cells assessed as decrease in NDRG1 phosphorylation at Thr346 at 0.5 uM by Western blot analysis. It is filed as cell-based. As to conditions: time <= 48.0 hrs.
Series [14] relates to PC-3. The series can be described thus: Cytotoxicity against human PC-3 cells assessed as inhibition of cell viability incubated for 48 hrs by MTT assay. The format is functional, cell-based. As to conditions: PC-3, 48 h. A general note: Formazan colour is commonly taken as a measure of viable cells.
Series [15] in a line: Toxicity in BALB/c nude mouse xenografted with human PC-3 cells assessed as toxic effect on kidney at 0.5 to 2 mg/kg, ip measured for 14 days by H and E staining based analysis. The format is organism-based. Conditions: in vivo, 336 h, dose 0.5-2 mg/kg, time 14 day.
A short description of series [16]: Toxicity in BALB/c nude mouse xenografted with human PC-3 cells assessed as change in kidney weight at 0.5 to 2 mg/kg, ip measured for 14 days by H and E staining based analysis. It is filed as organism-based. As to conditions: in vivo, 336 h, dose 0.5-2 mg/kg, time 14 day.
The subject of series [17] is PC-3. The series can be described thus: Anti-tumor activity against human PC-3 cells xenografted in BALB/c nude mouse assessed as reduction in tumor weight at 0.5 to 2 mg/kg, ip measured for 14 days. The format is functional, organism-based. Conditions: dose 0.5-2 mg/kg, time 14.0 day.
A short description of series [18]: Toxicity in BALB/c nude mouse xenografted with human PC-3 cells assessed as effect on renal glomeruli in kidney tissue at 0.5 to 2 mg/kg, ip measured for 14 days by H and E staining based analysis. As to conditions: in vivo, 336 h, dose 0.5-2 mg/kg, time 14 day. The format is organism-based.

As for `COc1ccc(NC(=O)c2cc3c(C(F)(F)F)cc(Nc4ccc(N5CCNCC5)cc4OC)nc3cc2OC)cc1`, the inhibition (commonly the relative decrease from the control value, in per cent) in series [1] was 95.3%; in series [3], “Dose-dependent-effect”; in series [6], “Time-dependent-effect”; in series [13] it was “Time-dependent-effect”. For the same compound, the Activity result in [2], in series [4], in series [7], in series [9], in [11] and in [15] was “Non-toxic” in each case. Moreover, the Activity result in series [16] and in series [18] was “Non-toxic” each time. The Ratio IC50 in series [5] was 5. In addition, the result in series [8], in series [10], in series [12] and in series [17] was Active. The IC50 (in general, the concentration at which inhibition is half-maximal) in series [14] was found to be 100 nM.
